Measurements from ChEMBL document CHEMBL1156449, “The nucleoside analog sangivamycin induces apoptotic cell death in breast carcinoma MCF7/adriamycin-resistant cells via protein kinase Cdelta and JNK activation” (J Biol Chem, 2007).
Active and inactive are the calls of the source. The calls are words filed in the database; no cut-off is given here.

Tests used:
MCF/ADR [1] = test: Blockade of apoptosis induction in human multidrug resistant MCF/ADR cells at 0.3 uM after 48 hrs in presence of SP600125; type: functional, cell-based
MCF/ADR [2] = test: Blockade of apoptosis induction in human multidrug resistant MCF/ADR cells at 0.3 uM after 48 hrs in presence of rottlerin; type: functional, cell-based
MCF/ADR [3] = test: Increase in p21CIP accumulation in human multidrug resistant MCF/ADR cells at 0.3 uM after 48 hrs by immunoblot analysis; type: functional, cell-based
MCF/ADR [4] = test: Induction of c-Jun expression in human multidrug resistant MCF/ADR cells at 0.3 uM; type: functional, cell-based
[5] = Reduction in induction of c-Jun expression in human multidrug resistant MCF/ADR cells at 0.3 uM after 48 hrs by immunoblot analysis in presence of rottlerin; type: functional, cell-based
[6] = Cell cycle arrest in human drug-sensitive MCF/WT cells assessed as accumulation at sub G0/G1 phase at 0.3 uM after 72 hrs by propidium fluorescence flow cytometry; type: functional, cell-based
MCF/ADR [7] = test: Increase in Bax levels in human multidrug resistant MCF/ADR cells at 0.3 uM by immunoblot analysis; type: functional, cell-based
MCF/WT [8] = test: Increase in Bcl-x/s levels in human drug-sensitive MCF/WT cells at 0.3 uM by immunoblot analysis; type: functional, cell-based
[9] = biological target: Bcl-2-like protein 1 (Homo sapiens) (UniProt Q07817); test: Inhibition of induction of Bcl-x/s phosphorylation in human multidrug resistant MCF/ADR cells at 0.3 uM after 48 hrs in presence of rottlerin; type: functional, cell-based
Bcl-2-like protein 1 (Homo sapiens), sequence (Q07817 whole entry): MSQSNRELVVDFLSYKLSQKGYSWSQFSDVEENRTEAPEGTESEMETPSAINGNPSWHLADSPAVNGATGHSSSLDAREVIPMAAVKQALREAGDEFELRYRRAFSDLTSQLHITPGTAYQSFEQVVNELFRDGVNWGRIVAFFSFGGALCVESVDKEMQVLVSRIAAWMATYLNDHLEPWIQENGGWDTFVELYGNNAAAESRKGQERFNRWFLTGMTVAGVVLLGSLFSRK

MCF/WT [10] = test: Increase in p21CIP accumulation in human drug-sensitive MCF/WT cells at 0.3 uM after 48 hrs by immunoblot analysis; type: functional, cell-based
MCF/ADR [11] = test: Reduction of lamin A cleavage in human multidrug resistant MCF/ADR cells transfected with c-Jun siRNA at 0.3 uM after 48 hrs by immunoblot analysis; type: functional, cell-based
MCF/ADR [12] = test: Increase in Bcl-x/l levels in human multidrug resistant MCF/ADR cells at 0.3 uM by immunoblot analysis; type: functional, cell-based
[13] = Cell cycle arrest in human multidrug resistant MCF/ADR cells assessed as accumulation at G2/M phase at 0.3 uM after 72 hrs by propidium fluorescence flow cytometry; type: functional, cell-based
[14] = biological target: Transcription factor Jun (Homo sapiens) (UniProt P05412); test: Reduction in induction of c-Jun expression in human multidrug resistant MCF/ADR cells at 0.3 uM after 48 hrs by immunoblot analysis in presence of pan-specific caspase inhibitor; type: cell-based
Transcription factor Jun (Homo sapiens), sequence (P05412 whole entry): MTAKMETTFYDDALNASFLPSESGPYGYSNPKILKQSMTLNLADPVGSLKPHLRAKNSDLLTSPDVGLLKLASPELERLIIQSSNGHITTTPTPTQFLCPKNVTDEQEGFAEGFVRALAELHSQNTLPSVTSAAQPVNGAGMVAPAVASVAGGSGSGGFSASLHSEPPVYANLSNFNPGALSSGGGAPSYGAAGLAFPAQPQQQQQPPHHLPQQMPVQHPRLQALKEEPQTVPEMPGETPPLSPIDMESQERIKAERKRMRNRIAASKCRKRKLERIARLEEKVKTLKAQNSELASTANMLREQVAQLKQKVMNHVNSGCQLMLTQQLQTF

MCF/ADR [15] = test: Inhibition of induction of apoptosis in human multidrug resistant MCF/ADR cells assessed as inhibition of cleavage of lamin A at 0.3 uM after 48 hrs by immunoblot analysis in presence of pan-specific inhibitor; type: functional, cell-based
[16] = biological target: Transcription factor Jun (Homo sapiens) (UniProt P05412); test: Reduction in induction of c-Jun phosphorylation in human multidrug resistant MCF/ADR cells at 0.3 uM after 48 hrs by immunoblot analysis in presence of rottlerin; type: cell-based
MCF/WT [17] = test: Induction of apoptosis in human drug sensitive MCF/WT cells assessed as propidium iodide binding to phosphatidylserine at 0.3 uM after 6 hrs; type: functional, cell-based
[18] = Cell cycle arrest in human multidrug resistant MCF/ADR cells assessed as accumulation at G0/G1 phase at 0.3 uM after 72 hrs by propidium fluorescence flow cytometry; type: functional, cell-based
MCF/ADR [19] = test: Reduction in induction of apoptosis in SP600125 pretreated human multidrug resistant MCF/ADR cells assessed as reduction of cleavage of PARP at 0.3 uM after 48 hrs by immunoblot analysis; type: functional, cell-based
[20] = biological target: Transcription factor Jun (Homo sapiens) (UniProt P05412); test: Induction of c-Jun phosphorylation in human drug-sensitive MCF/WT cells at 0.3 uM; type: cell-based
MCF/ADR [21] = test: Reduction in induction of apoptosis in human multidrug resistant MCF/ADR cells assessed as suppression of lamin A cleavage at 0.3 uM after 48 hrs by immunoblot analysis in presence of rottlerin; type: functional, cell-based
[22] = biological target: Transcription factor Jun (Homo sapiens) (UniProt P05412); test: Induction of c-Jun serine 63 phosphorylation in human multidrug resistant MCF/ADR cells at 0.3 uM; type: cell-based
MCF/WT [23] = test: Increase in Bcl-x/l levels in human drug-sensitive MCF/WT cells at 0.3 uM by immunoblot analysis; type: functional, cell-based

For NC(=O)c1cn([C@@H]2O[C@H](CO)[C@@H](O)[C@H]2O)c2ncnc(N)c12 [SANGIVAMYCIN], the Activity (MCF/ADR [1]) was “Active”, the Activity (MCF/ADR [2]) was “Active” and the Activity (MCF/ADR [3]) was “inactive”. For the same compound, the Activity (MCF/ADR [4]) was “Active”, the Activity [5] was “Active” and the Activity [6] was 4%. For the same compound, the Activity (MCF/ADR [7]) was “Active”, the Activity (MCF/WT [8]) was “Active” and the Activity [9] was “Active”. The Activity (MCF/WT [10]) was “Active”, the Activity (MCF/ADR [11]) was “inactive” and the Activity (MCF/ADR [12]) was “Active”. For the same compound, the Activity [13] was 8%, the Activity [14] was “inactive” and the Activity (MCF/ADR [15]) was “Active”. The Activity [16] was “Active”, the Activity (MCF/WT [17]) was “inactive” and the Activity [18] was 17%. For the same compound, the Activity (MCF/ADR [19]) was “Active”, the Activity [20] was “inactive” and the Activity (MCF/ADR [21]) was “Active”. The Activity [22] was “Active” and the Activity (MCF/WT [23]) was “Active”.
